Test results: patent US20130041005A1, “PHARMACEUTICAL COMPOSITIONS COMPRISING NEUROPILIN INHIBITORS, AND THEIR USE FOR THE PREVENTION AND/OR TREATMENT OF ANGIOGENIC DISORDERS AND CANCERS” (TRAGEX PHARMA, priority 2011, published 2013)

Key:
NRP-1 = target: T1, NRP-1 (Homo sapiens, UniProt O14786); test: ELISA inhibition of VEGF binding to NRP-1; details: compounds at 10 μM
T1 construct: purchased R&D Systems, UK 3870-N1-025
T1 sequence (O14786 22-644 isoform O14786-2 limits assumed): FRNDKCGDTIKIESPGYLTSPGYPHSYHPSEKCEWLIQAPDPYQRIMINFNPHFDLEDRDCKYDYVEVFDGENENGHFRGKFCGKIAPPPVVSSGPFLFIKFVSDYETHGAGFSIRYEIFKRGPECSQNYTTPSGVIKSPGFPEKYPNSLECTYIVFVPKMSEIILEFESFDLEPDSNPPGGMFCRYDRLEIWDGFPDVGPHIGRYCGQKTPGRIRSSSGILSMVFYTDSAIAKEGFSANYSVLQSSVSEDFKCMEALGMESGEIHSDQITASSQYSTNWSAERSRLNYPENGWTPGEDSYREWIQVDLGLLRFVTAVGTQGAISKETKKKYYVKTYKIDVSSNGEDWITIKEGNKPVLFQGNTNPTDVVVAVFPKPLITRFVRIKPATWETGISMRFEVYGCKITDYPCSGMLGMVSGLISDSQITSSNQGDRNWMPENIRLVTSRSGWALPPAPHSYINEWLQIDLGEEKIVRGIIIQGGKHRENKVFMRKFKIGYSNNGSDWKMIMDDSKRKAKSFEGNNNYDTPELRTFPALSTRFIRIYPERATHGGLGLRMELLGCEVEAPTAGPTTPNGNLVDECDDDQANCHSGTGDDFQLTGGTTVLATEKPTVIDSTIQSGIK
Experimental: Elisa test was performed covering a 96-well microplate (BD Biosciences, France, cat no 353046) surface with 100 μl of 1×PBS, pH 7.4 with Ca^2+ and Mg^2+, (Lonza, France, cat no 17-513F/12) solution containing 0.2 μg/ml of VEGF-R1 (R&D Systems, UK, cat no 321-FL-050/CF) or 2 μg/ml of NRP-1 (R&D Systems, UK, cat no 3870-N1-025) or NRP-2 (R&D Systems, UK, cat no […]). The plate was sealed and incubated overnight at 4° C. After 3 washes with 200 μl of 1×PBS 0.5% (v/v) Tween 20 (Sigma, France, cat no 34078) (Buffer A), the plate was blocked by adding 200 μl of 1×PBS with 0.5% (w/v) BSA (Eurobio, France, cat no GAUBSA01-65) and agitated at 37° C. for 2 h. After washing five times with Buffer A, 50 μl/well of the compounds of the invention at 10 μM were added for the specific signal and 50 μl/well for the non-specific and max binding signal and incubated at 37° C. for 1 hour, shacking. 50 μl of btVEGF (R&D Systems, UK, cat no NFVEO) at […] for NRP-1/4 μg/ml Heparin (Sigma, USA, cat no H3393-10KU), 300 μg/ml for NRP-2 and 100 μg/ml for VEGF-R1 solution was added to each well; the plate was sealed and incubated at 37° C. for 2 h, shacking. The last incubation was carried out, after five washes with Buffer A, adding 100 μl/well Streptavidin-Horseradish Peroxidase (Amersham, Switzerland, cat no RPN4401) diluted 1:8000 with buffer A. After 1 h shacking at 37° C. under obscurity, the plate was washed 5 times with buffer A and 100 μl of SuperSignal west picochemiluminescent substrate (Interchim, USA cat no 34078) were added. Luminescence was quantified with an EnVision™ 2101 Multilabel reader (Perkin Elmer, USA) and the data analyzed by Wallac Envision manager software. Signal is given as relative light units (RLU). Non-specific binding is defined as the signal measured in the absence of receptor coated on the microplate. The specific binding was calculated as the difference between total binding and non-specific binding. The percentage of inhibition was calculated as following: […]

MDA-MB-231 = test: WST-1 proliferation assay, MDA-MB-231; format: cell-based, Human; details: MDAMB-231 cell survival, FIGS. 1A-C
Experimental: (§1) Cells were grown as subconfluent monolayer and cultured in 75 cm^2 flasks at 37° C., 5% CO2 in a humidified atmosphere, and medium was changed every two days. Only cells from passages 2-6 were used for the experiments.
(§2) All cells were detached with 3 ml of trypsin/EDTA (chelator of calcium and magnesium ions) (Lonza), incubated for 5 min at 37° C., and examined using a microscope to ensure that the cells were detached and floating. […] The supernatant was removed and the cell pellet resuspended in […] of culture medium. 50 μl of this solution were transferred in 20 μl of isotonic solution and the cells were counted by count cellular (Beckman Coulter).
(§3) The cell proliferation WST-1 assay is a colorimetric assay for the quantification of cell proliferation and viability, based on the enzymatic cleavage of the tetrazolium salt WST-1 added to the culture medium, to a water soluble colored formazan dye, detected by absorbance at 450 nm, by mitochondrial succinate-tetrazolium reductase in viable cells. An augmentation in enzyme activity will then lead to an increase in the amount of formazan dye formed, which directly correlates to the number of metabolically active cells in the culture.
(§4) After an incubation period of 72 h, at day 4, were prepared the […] medium with reagent WST-1 […] ([…]). The medium was removed from the 96 microplate and 200 μl of solution WST-1/medium were added for each well. The cells were incubated at 37° C. in a humidified atmosphere of 5% CO2 for 1 h 30 and the absorbance at 450-655 nm was measured by Microplate Manager 5.2 (Bio-Rad).

MDAMB-231 cells = test: Adhesion test (crystal violet), MDA-MB-231; format: cell-based, Human; details: MDAMB-231, FIGS. 1A-C
Experimental: The crystal violet (hexamethyl pararosaniline chloride) is used as biologic colorant. It enters in the living cells, allowing the visualisation of the dark purple adherent living cells on the bottom of the plate.
After an incubation period of 72 h, the adherent cells were fixed with […] paraformaldehyde
3% for 15 min at room temperature. The medium and non-adherent cells were removed, and the cells were washed extensively with […] PBS (+Ca^2+ and +Mg^2+) (Lonza) and then stained with 50 μl of crystal violet 0.04% for 30 min at room temperature. The cells were washed gently 3 times with 100 μl PBS and were permeabilised with 100 μl triton 2% for 15 min. The microplate was stirred to obtain a homogenous solution and absorbance was quantified at 580 nm by Microplate Manager 5.2.
The percentage of inhibition is calculated as follow: % inhibition=100−[(DOsample/DOcontrol)*100].

HUVEC cells = test: WST-1 proliferation assay, HUVEC; format: cell-based; details: FIG. 1 cell survival
Experimental: as §1, §2, §3, §4

O=C(NC(=S)Nc1cccc(-c2nc3ccccc3[nH]2)c1)c1ccc2c(c1)OCO2 [Compound 3, N-[3-(1H-benzimidazol-2-yl)phenyl]-N′-(1,3-benzodioxol-5-ylcarbonyl)thiourea]
inhibition at 10 µM (NRP-1): 46 ± 3% | cytotoxicity for cancer cells in vitro (MDA-MB-231): cytotoxic | inhibition of adhesion of cancer cells in culture (MDAMB-231 cells): inhibited the adhesion | cytotoxicity for endothelial cell lines (HUVEC cells) in culture (HUVEC cells): cytotoxic
